The results in this text go back to ChEMBL document CHEMBL1153982, “Synthesis and evaluation of 2,7-diamino-thiazolo[4,5-d] pyrimidine analogues as anti-tumor epidermal growth factor receptor (EGFR) tyrosine kinase inhibitors” (Bioorg Med Chem Lett, 2009).

The structures appear in SMILES notation. Converted amounts (≈) assume the structure as drawn.

Data set [1] addresses Epidermal growth factor receptor (Homo sapiens, UniProt P00533).
Data set [2] is described as follows: Oral bioavailability in rat at 10 mg/kg. The format is ADME, organism-based. The following applies: in vivo.
Data set [3] is described as follows: Solubility in aqueous buffer at pH 7.4. The format is physicochemical.
A short description of data set [4]: Half life in rat at 10 mg/kg. The data set is classed as ADME, organism-based. Also on record: dose 10 mg/kg. The conditions noted are these: in vivo.
Data set [5] is described as follows: AUC in rat at 10 mg/kg. The data set is classed as ADME, organism-based. On the set-up: dose 10 mg/kg. The conditions noted are these: plasma.
Data set [6] is described as follows: Solubility in aqueous buffer at pH 2.0. The format is physicochemical.
Data set [7] is described as follows: Cmax in rat at 10 mg/kg. The format is ADME, organism-based. Also on record: dose 10 mg/kg. The conditions noted are these: in vivo.
Data set [8] is described as follows: Metabolic stability to human liver microsomes assessed as half life. The format is ADME, Microsome.
Data set [9] can be described thus: Cmax in mouse at 10 mg/kg. The format is ADME, organism-based. On the set-up: dose 10 mg/kg. The conditions noted are these: in vivo.
Data set [10] can be described thus: AUC in mouse at 10 mg/kg. The data set is classed as ADME, organism-based. On the set-up: dose 10 mg/kg. The conditions noted are these: plasma.
The nature of data set [11]: Oral bioavailability in mouse at 10 mg/kg. The data set is classed as ADME, organism-based. The conditions noted are these: in vivo, read-out: ED15.
A short description of data set [12]: Half life in mouse at 10 mg/kg. The data set is classed as ADME, organism-based. Also on record: dose 10 mg/kg. The conditions noted are these: in vivo.
Data set [13] concerns the target Cyclin-dependent kinase 1 (Homo sapiens, UniProt P06493). As to the kind of experiment: Inhibition of CDK1.

Epidermal growth factor receptor, sequence (P00533 whole entry): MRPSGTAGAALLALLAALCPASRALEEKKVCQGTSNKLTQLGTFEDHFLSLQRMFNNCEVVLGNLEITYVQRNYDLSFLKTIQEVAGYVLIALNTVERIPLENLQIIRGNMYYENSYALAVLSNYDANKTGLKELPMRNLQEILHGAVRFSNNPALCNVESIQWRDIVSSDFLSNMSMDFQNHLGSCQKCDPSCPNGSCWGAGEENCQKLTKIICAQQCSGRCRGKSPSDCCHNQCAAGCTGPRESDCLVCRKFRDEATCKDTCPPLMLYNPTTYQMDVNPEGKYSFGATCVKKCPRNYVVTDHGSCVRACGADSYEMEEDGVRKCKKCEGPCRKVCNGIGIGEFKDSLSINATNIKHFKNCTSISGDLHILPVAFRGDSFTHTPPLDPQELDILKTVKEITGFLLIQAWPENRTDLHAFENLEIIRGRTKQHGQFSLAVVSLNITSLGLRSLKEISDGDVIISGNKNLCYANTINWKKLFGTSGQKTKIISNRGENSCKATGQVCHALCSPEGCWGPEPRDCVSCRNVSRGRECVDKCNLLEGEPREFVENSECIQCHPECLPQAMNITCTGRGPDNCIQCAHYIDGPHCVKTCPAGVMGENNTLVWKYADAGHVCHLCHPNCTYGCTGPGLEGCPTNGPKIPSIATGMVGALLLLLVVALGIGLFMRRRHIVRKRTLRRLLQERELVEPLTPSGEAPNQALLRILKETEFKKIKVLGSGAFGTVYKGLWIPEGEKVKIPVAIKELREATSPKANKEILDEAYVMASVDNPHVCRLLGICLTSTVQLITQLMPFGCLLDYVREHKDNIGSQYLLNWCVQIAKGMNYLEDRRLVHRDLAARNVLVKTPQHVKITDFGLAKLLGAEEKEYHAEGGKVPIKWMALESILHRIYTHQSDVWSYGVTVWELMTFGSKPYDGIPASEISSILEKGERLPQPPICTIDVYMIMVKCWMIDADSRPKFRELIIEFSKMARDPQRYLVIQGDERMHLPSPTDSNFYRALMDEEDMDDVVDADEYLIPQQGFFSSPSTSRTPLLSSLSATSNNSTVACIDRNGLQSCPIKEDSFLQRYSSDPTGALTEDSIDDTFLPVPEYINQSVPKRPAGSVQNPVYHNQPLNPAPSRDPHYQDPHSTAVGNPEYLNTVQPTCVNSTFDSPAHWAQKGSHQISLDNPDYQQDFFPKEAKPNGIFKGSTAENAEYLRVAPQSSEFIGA
Cyclin-dependent kinase 1, sequence (P06493 whole entry): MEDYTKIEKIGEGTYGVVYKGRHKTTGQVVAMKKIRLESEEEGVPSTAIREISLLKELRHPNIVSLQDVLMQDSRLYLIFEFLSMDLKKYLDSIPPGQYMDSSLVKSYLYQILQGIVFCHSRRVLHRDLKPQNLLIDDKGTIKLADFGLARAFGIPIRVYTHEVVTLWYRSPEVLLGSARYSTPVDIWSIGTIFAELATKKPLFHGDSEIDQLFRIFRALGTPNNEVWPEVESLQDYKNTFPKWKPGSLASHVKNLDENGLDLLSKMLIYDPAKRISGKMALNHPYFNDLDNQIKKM

One may read the IC50 as the concentration at which inhibition is half-maximal. Higher therefore signals weaker potency in that assay. The compound `NS(=O)(=O)c1ccc(Nc2nc3ncnc(Nc4cccc(Br)c4)c3s2)cc1` registered an IC50 in [1] of 10 nM.
The same measure, in the same setting: then `NS(=O)(=O)c1ccc(Nc2nc3ncnc(Nc4ccc(N5CCOCC5)c(Cl)c4)c3s2)cc1`, with 3300 nM; and `COCCN(CCOC)S(=O)(=O)c1ccc(Nc2nc3ncnc(Nc4ccc(F)c(Cl)c4)c3s2)cc1`, with 25 nM.
Still for that read-out and setting: then `Fc1ccc(Nc2ncnc3nc(Nc4ccc(CN5CCCCC5)cc4)sc23)cc1Cl`, with 10 nM.
A word on the solubility: it is the concentration that dissolves in the medium under given conditions. A higher solubility goes with a readily soluble substance. As a reminder, the half-life is the time in which the quantity being followed falls by half. What is called AUC is the area under the concentration-time curve, a measure of exposure. A higher AUC goes with high exposure. In general, Cmax refers to the maximum level reached in the sampled fluid or tissue. In data set [2], `Fc1ccc(Nc2ncnc3nc(Nc4ccc(CCN5CCOCC5)cc4)sc23)cc1Cl` displayed a bioavailability of 13%. Further, the solubility is < 0.2 µg/mL in data set [3] and 290 µg/mL (≈ 598 µM) in data set [6]. Besides, the half-life in data set [4] was 108 min; in data set [8] it was 11 min. Moreover, the AUC in [5] worked out at 1170 ng·h/mL. Besides, the Cmax in data set [7] is 289 ng/mL. Further, the IC50 in [1] is 15 nM.
For the compound `Fc1ccc(Nc2ncnc3nc(Nc4ccc(CN5CCCC5)cc4)sc23)cc1Cl`, the IC50 in data set [1] was determined as 4 nM.
Same read-out and setting: next, `C#Cc1cccc(Nc2ncnc3nc(Nc4ccc(CN5CCOCC5)cc4)sc23)c1`: 43 nM.
`N#Cc1cnc2nc(Nc3ccc(CN4CCOCC4)cc3)sc2c1Nc1ccc(F)c(Cl)c1` came in with a bioavailability in data set [2] of 10.8%. For the same compound, the solubility in data set [3] was < 0.2 µg/mL; in data set [6] it was 37 µg/mL (≈ 74.8 µM). Further, the figures for the half-life in data set [4] and in [8] were 294 min and 13 min, respectively. Besides, in [5], the AUC was found to be 184 ng·h/mL. In [7], this compound came in with a Cmax of 28 ng/mL.
Regarding `CCc1nccn1Cc1ccc(Nc2nc3ncnc(Nc4ccc(F)c(Cl)c4)c3s2)cc1`, the solubility in data set [3] was < 0.2 µg/mL; in data set [6], 300 µg/mL (≈ 625 µM). Besides, in data set [8], the half-life worked out at 3 min. The IC50 in data set [1] stood at 6 nM.
As for `CN1CCN(Cc2ccc(Nc3nc4ncnc(Nc5ccc(OCc6cccc(F)c6)c(Cl)c5)c4s3)cc2)CC1`, the IC50 in data set [1] was 9 nM.
For the compound `Fc1ccc(Nc2ncnc3nc(Nc4ccc(CN5CCOCC5)cc4)sc23)cc1Cl`, the figures for the Cmax in [9] and in [7] were 3850 ng/mL and 527 ng/mL, respectively. The AUC in data set [10] amounted to 10800 ng·h/mL; in data set [5], 2150 ng·h/mL. Besides, the bioavailability in [2] turned out to be 20%; in [11], 67%. Also, the solubility is 1 µg/mL (≈ 2.12 µM) in [3] and > 1000 µg/mL in data set [6]. Moreover, the half-life is 113 min in [4], 19 min in data set [8] and 174 min in [12]. Further, the half-inhibitory concentration (IC50) in data set [1] worked out at 12 nM.
Turning to `OC[C@@H]1CCCN1Cc1ccc(Nc2nc3ncnc(Nc4ccc(F)c(Cl)c4)c3s2)cc1`, the bioavailability in [2] came to 0.3%. The solubility in data set [3] is < 0.2 µg/mL; in [6] it was 360 µg/mL (≈ 742 µM). The AUC in data set [5] is 24 ng·h/mL. This compound came in with a Cmax in data set [7] of 2.4 ng/mL. Besides, the half-life in data set [8] was > 100 min.
As to `CN(C)Cc1ccc(Nc2nc3ncnc(Nc4ccc(F)c(Cl)c4)c3s2)cc1`, the bioavailability in [2] stood at 9%. Moreover, the solubility in data set [3] came out at 27 µg/mL (≈ 62.9 µM); in data set [6], 390 µg/mL (≈ 909 µM). Moreover, the half-life is 192 min in data set [4] and > 100 min in data set [8]. Besides, in data set [5], the AUC was determined as 322 ng·h/mL. For the same compound, in [7], the concentration peaked (Cmax) at 54 ng/mL.
In data set [2], `NS(=O)(=O)c1ccc(Nc2nc3ncnc(Nc4cccc(Cl)c4)c3s2)cc1` registered a bioavailability of 0.8%. The solubility in data set [3] and in data set [6] was < 0.2 µg/mL each time. This compound showed an AUC in [5] of 224 ng·h/mL. The compound also gave a Cmax in data set [7] of 39 ng/mL. For the same compound, in data set [8], the half-life is > 100 min. In [1], this compound showed a concentration for half-maximal inhibition (IC50) of 7 nM.
In [13], `NS(=O)(=O)c1ccc(Nc2nc3ncnc(Nc4c(F)cccc4F)c3s2)cc1` showed an IC50 of 19.8 µM.
